The subject of one data set is aureolysin. Briefly: Staphylococcus aureus aureolysin (3 µg, BioCol GmbH) in 300 µl 20 mM Tris-HCl, 1 mM CaCl2 pH 7.8. The conditions noted are these: 37°C, up to 24 h.
Another data set has as its system elastase. Briefly: Pseudomonas aeruginosa elastase (3 µg, Calbiochem) in 300 µl 20 mM Tris-HCl, 1 mM CaCl2 pH 7.8. The conditions noted are these: 37°C, up to 24 h.

Entries after “also recorded” stand apart in the source; their conditions may differ.

With KKIRVRLSA, in the data set on aureolysin, the cleaved bond entry is “R6-L7, 1h; also recorded: S8-A9, 1h” and the not cleaved result is recorded as “remaining unaltered after 24 h of incubation”. In the data set with elastase, the cleaved bond entry is recorded as “R6-L7, 5 h; also recorded: S8-A9, 5 h” and the not cleaved entry is reported as “resisted degradation by elastase for 24 h”.

(Values after publication PMC3462775 (PLoS ONE, 2012).)
